We go through 22 molecules from US20050234046A1 (Kalypsys, Inc., priority 2004, published 2005).

Common to all, as to assay: Transient transfection (transactivation) assay in CV-1 cells, GAL4-PPAR chimera, luciferase reporter
Common to all, as to format: cell-based
On the technique in general: A reporter such as luciferase makes a cellular process visible.

Experiment [1] has as its target T1, PPAR alpha (Homo sapiens, UniProt Q07869).
T1 construct: expressed in transfected cells; host or cells: CV-1 cells
T1 sequence (Q07869 239-466 limits assumed): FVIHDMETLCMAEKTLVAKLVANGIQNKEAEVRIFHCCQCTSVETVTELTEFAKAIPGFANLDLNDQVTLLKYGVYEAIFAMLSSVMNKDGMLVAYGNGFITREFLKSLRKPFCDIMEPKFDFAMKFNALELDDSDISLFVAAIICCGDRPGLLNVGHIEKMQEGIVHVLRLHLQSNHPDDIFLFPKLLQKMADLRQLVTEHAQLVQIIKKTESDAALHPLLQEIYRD
The text has this:
Compounds may be screened for functional potency in transient transfection assays in CV-1 cells or other cell types for their ability to activate the PPAR subtypes (transactivation assay). A previously established chimeric receptor system was utilized to allow comparison of the relative transcriptional activity of the receptor subtypes on the same synthetic response element and to prevent endogenous receptor activation from complicating the interpretation of results. See, for example; Lehmann, J. M.; Moore, L. B.; Smith-Oliver, T. A; Wilkinson, W. O.; Willson, T. M.; Kliewer, S. A., An antidiabetic thiazolidinedione is a high affinity ligand for peroxisome proliferatur-activated receptor γ (PPARγ), J. Biol. Chem., 1995, 270, 12953-6. The ligand binding domains for murine and human PPAR-alpha, PPAR-gamma, and PPAR-delta are each fused to the yeast transcription factor GAL4 DNA binding domain. CV-1 cells were transiently transfected with expression vectors for the respective PPAR chimera along with a reporter construct containing four or five copies of the GAL4 DNA binding site driving expression of luciferase. After 8-16 h, the cells are replated into multi-well assay plates and the media is exchanged to phenol-red free DME medium supplemented with 5% delipidated calf serum. 4 hours after replating, cells were treated with either compounds or 1% DMSO for 20-24 hours. Luciferase activity was then assayed with Britelite (Perkin Elmer) following the manufacturer's protocol and measured with either the Perkin Elmer Viewlux or Molecular Devices Acquest Xsee, for example, Kliewer, S. A., et. al. Cell 1995, 83, 813-819). Rosiglitazone is used as a positive control in the hPPAR-γ assay. Wy-14643 and GW7647 is used as a positive control in the hPPAR-α assay. GW501516 is used as the positive control in the hPPAR-δ assay.
Compounds of Examples 1-233 were assayed to measure their biological activity with respect to their EC50 values and efficacy for modulating PPAR-alpha, PPAR-gamma, and PPAR-delta as set forth in Table 3.

For experiment [2], the target named is T2, PPAR gamma (Homo sapiens, UniProt P37231).
T2 construct: expressed in transfected cells; host or cells: CV-1 cells
T2 sequence (P37231 238-503 limits assumed): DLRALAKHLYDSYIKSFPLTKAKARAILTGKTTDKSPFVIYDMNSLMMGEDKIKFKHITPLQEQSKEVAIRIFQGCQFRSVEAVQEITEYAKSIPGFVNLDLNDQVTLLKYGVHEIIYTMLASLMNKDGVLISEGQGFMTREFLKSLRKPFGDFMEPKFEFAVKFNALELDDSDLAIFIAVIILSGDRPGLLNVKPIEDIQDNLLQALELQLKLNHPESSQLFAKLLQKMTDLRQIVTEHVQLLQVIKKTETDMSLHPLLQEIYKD

Experiment [3] deals with T3, PPAR delta (Homo sapiens, UniProt Q03181).
T3 construct: expressed in transfected cells; host or cells: CV-1 cells
T3 sequence (Q03181 211-439 limits assumed): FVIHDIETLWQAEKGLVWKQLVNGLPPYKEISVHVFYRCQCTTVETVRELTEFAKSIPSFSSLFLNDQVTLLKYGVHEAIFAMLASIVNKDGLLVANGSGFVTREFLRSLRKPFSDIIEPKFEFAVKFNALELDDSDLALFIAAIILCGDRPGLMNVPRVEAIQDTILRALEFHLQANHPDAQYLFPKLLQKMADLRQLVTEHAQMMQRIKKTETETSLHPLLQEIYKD

pEC50: −log10 of the molar value.

What is called pEC50 is the EC50 on a negative log10 scale, so that one unit is a factor of ten. Low values mean a large EC50, high ones a small EC50. As for `Cc1ccc(S(=O)(=O)N2CCN(c3ccc(C(F)(F)F)cn3)CC2C)cc1CC(=O)O` (stereo not drawn) [Example 19], the values for the pEC50 in experiment [1], in experiment [2] and in experiment [3] were 4.00 to 5.30, 4.00 to 5.30 and greater than 5.30, respectively.
In the case of `Cc1ccc(S(=O)(=O)N2[C@H](C)CN(c3ccc(C(F)(F)F)cn3)C[C@@H]2C)cc1CC(=O)O` [Example 20, {5-[2,6-Dimethyl-4-(5-trifluoromethyl-pyridin-2-yl)-piperazine-1-sulfonyl]-2-methyl-phenyl}-acetic acid], the results for the pEC50 in experiment [1], in experiment [2] and in experiment [3] were less than 4.00, less than 4.00 and greater than 5.30, respectively.
For `Cc1cc(CC(=O)O)cc(S(=O)(=O)N2CCN(c3ncc(C(F)(F)F)cc3Cl)CC2)c1` [Example 22, {5-Methyl-3-[4-(3-chloro-5-trifluoromethyl-pyridin-2-yl)-piperazine-1-sulfonyl]-phenyl)-acetic acid], the pEC50 in experiment [1] is 4.00 to 5.30; in experiment [2], greater than 5.30; in experiment [3], greater than 5.30.
For `Cc1ccc(S(=O)(=O)N2CCN(c3ccc(C(F)(F)F)cn3)C(C)C2)cc1CC(=O)O` (stereo not drawn) [Example 23, [2-Methyl-5-[3-methyl-4-(5-trifluoromethyl-pyridin-2-yl)-piperazine-1-sulfonyl]-phenyl}-acetic acid], the pEC50 in experiment [1] is 4.00 to 5.30; in experiment [2], greater than 5.30; in experiment [3] it was greater than 5.30.
With `Cc1ccc(S(=O)(=O)N2[C@H](C)CN(c3nc4ccccc4o3)C[C@@H]2C)cc1CC(=O)O` [Example 24, [5-(4-Benzooxazol-2-yl-2,6-dimethyl-piperazine-1-sulfonyl)-2-methyl-phenyl]-acetic acid], the pEC50 in experiment [1] is less than 4.00; in experiment [2], less than 4.00; in experiment [3], 4.00 to 5.30.
For `Cc1ccc(S(=O)(=O)N2[C@H](C)CN(c3nc4ccccc4s3)C[C@@H]2C)cc1CC(=O)O` [Example 25, [5-(4-Benzothiazol-2-yl-2,6-dimethyl-piperazine-1-sulfonyl)-2-methyl-phenyl]-acetic acid], the results for the pEC50 in experiment [1], in experiment [2] and in experiment [3] were less than 4.00, less than 4.00 and 4.00 to 5.30, respectively.
Take `Cc1ccc(S(=O)(=O)N2CCCN(c3nc4ccccc4o3)CC2)cc1CC(=O)O` [Example 26, [5-(4-Benzooxazol-2-yl-[1,4]diazepane-1-sulfonyl)-2-methyl-phenyl]-acetic acid]: the pEC50 in experiment [1] was less than 4.00; in experiment [2], less than 4.00; in experiment [3] it was 4.00 to 5.30.
On to `Cc1ccc(S(=O)(=O)N2CCCN(c3nc4ccccc4s3)CC2)cc1CC(=O)O` [Example 27, [5-(4-Benzothiazol-2-yl-[1,4]diazepane-1-sulfonyl)-2-methyl-phenyl]-acetic acid], for which the figures for the pEC50 in experiment [1], in experiment [2] and in experiment [3] were less than 4.00, 4.00 to 5.30 and 4.00 to 5.30, respectively.
In the case of `Cc1ccc(S(=O)(=O)N2CCN(c3ccc(C#N)cn3)CC2)cc1CC(=O)O` [Example 28, {5-[4-(5-Cyano-pyridin-2-yl)-piperazine-1-sulfonyl]-2-methyl-phenyl}-acetic acid], the pEC50 is less than 4.00 in experiment [1], less than 4.00 in experiment [2] and greater than 5.30 in experiment [3].
Take `COC(=O)[C@H]1CN(c2ccc(C(F)(F)F)cn2)CCN1S(=O)(=O)c1ccc(C)c(CC(=O)O)c1` [Example 29, (R)-1-(3-Carboxymethyl-4-methyl-benzenesulfonyl)-4-(5-trifluoromethyl-pyridin-2-yl)-piperazine-2-carboxylic acid methyl ester]: the pEC50 was less than 4.00 in experiment [1], less than 4.00 in experiment [2] and greater than 5.30 in experiment [3].
As to `CCc1ccc(N2CCN(S(=O)(=O)c3ccc(C)c(CC(=O)O)c3)CC2)cc1` [Example 30, {5-[4-(4-Ethyl-phenyl)-piperazine-1-sulfonyl]-2-methyl-phenyl}-acetic acid], the pEC50 was 4.00 to 5.30 in experiment [1], 4.00 to 5.30 in experiment [2] and greater than 5.30 in experiment [3].
Turning to `Cc1ccc(S(=O)(=O)N2CCN(c3ccc(C(C)C)cc3)CC2)cc1CC(=O)O` [Example 31], the pEC50 in experiment [1] was greater than 5.30; in experiment [2] it was 4.00 to 5.30; in experiment [3], greater than 5.30.
With `Cc1ccc(S(=O)(=O)N2CCN(c3ccc(C(C)(C)C)cc3)CC2)cc1CC(=O)O` [Example 32, {5-[4-(4-tert-Butyl-phenyl)-piperazine-1-sulfonyl]-2-methyl-phenyl}-acetic acid], the pEC50 is greater than 5.30 in experiment [1], 4.00 to 5.30 in experiment [2] and 4.00 to 5.30 in experiment [3].
Turning to `Cc1ccc(S(=O)(=O)N2CCN(c3ccc(C(F)(F)F)cc3F)CC2)cc1CC(=O)O` [Example 33], the pEC50 in experiment [1], in experiment [2] and in experiment [3] was greater than 5.30 each time.
Turning to `Cc1ccc(S(=O)(=O)N2CCN(c3ccc(C(F)(F)F)c(F)c3)CC2)cc1CC(=O)O` [Example 34, {5-[4-(3-Fluoro-4-trifluoromethyl-phenyl)-piperazine-1-sulfonyl]-2-methyl-phenyl}-acetic acid], the pEC50 in experiment [1] and in experiment [3] was greater than 5.30 throughout. Besides, the “PPAR gamma EC50” value in experiment [2] is on record as “B/C”.
`Cc1ccc(S(=O)(=O)N2CCN(c3cc(C(F)(F)F)ccn3)CC2)cc1CC(=O)O` [Example 35, {2-Methyl-5-[4-(4-trifluoromethyl-pyridin-2-yl)-piperazine-1-sulfonyl]-phenyl}-acetic acid]: the pEC50 in experiment [1] was 4.00 to 5.30; in experiment [2], 4.00 to 5.30; in experiment [3], greater than 5.30.
Take `Cc1ccc(S(=O)(=O)N2CCN(c3cccc(C(F)(F)F)n3)CC2)cc1CC(=O)O` [Example 36, {2-Methyl-5-[4-(6-trifluoromethyl-pyridin-2-yl)-piperazine-1-sulfonyl]-phenyl}-acetic acid]: the pEC50 in experiment [1] was 4.00 to 5.30; in experiment [2], greater than 5.30; in experiment [3] it was greater than 5.30.
On to `COC(=O)[C@@H]1CN(c2ccc(C(F)(F)F)cn2)CCN1S(=O)(=O)c1ccc(C)c(CC(=O)O)c1` [Example 37, (S)-1-(3-Carboxymethyl-4-methyl-benzenesulfonyl)-4-(S-trifluoromethyl-pyridin-2-yl)-piperazine-2-carboxylic acid methyl ester], for which the pEC50 in experiment [1] is less than 4.00; in experiment [2], less than 4.00; in experiment [3], greater than 5.30.
As to `Cc1ccc(S(=O)(=O)N2CCN(c3ccc(C(F)(F)F)cn3)C(C)(C)C2)cc1CC(=O)O` [Example 38, {5-[3,3-Dimethyl-4-(5-trifluoromethyl-pyridin-2-yl)-piperazine-1-sulfonyl]-2-methyl-phenyl}-acetic acid], the values for the pEC50 in experiment [1], in experiment [2] and in experiment [3] were less than 4.00, greater than 5.30 and greater than 5.30, respectively.
Take `Cc1ccc(S(=O)(=O)N2CCN(c3ccc(C(F)(F)F)cn3)CC2(C)C)cc1CC(=O)O` [Example 39, {5-[2,2-Dimethyl-4-(5-trifluoromethyl-pyridin-2-yl)-piperazine-1-sulfonyl]-2-methyl-phenyl}-acetic acid]: the pEC50 was less than 4.00 in experiment [1], greater than 5.30 in experiment [2] and greater than 5.30 in experiment [3].
As for `COC[C@@H]1CN(S(=O)(=O)c2ccc(C)c(CC(=O)O)c2)CCN1c1ccc(C(F)(F)F)cn1` [Example 40], the pEC50 in experiment [1] was less than 4.00; in experiment [2], less than 4.00; in experiment [3], 4.00 to 5.30.
On to `COC(=O)[C@H]1CN(S(=O)(=O)c2ccc(C)c(CC(=O)O)c2)CCN1c1ccc(C(F)(F)F)cn1` [Example 41, (R)-4-(3-Carboxymethyl-4-methyl-benzenesulfonyl)- -(5-trifluoromethyl-pyridin-2-yl)-piperazine-2-carboxylic acid methyl ester], for which the pEC50 in experiment [1] is less than 4.00; in experiment [2], 4.00 to 5.30; in experiment [3], greater than 5.30.
